# Columns and labels:
# [1] = tested on: non-target nematodes versus targeted PPNs; test: Selectivity index, non-target nematodes over targeted PPNs
# Method: The selectivity index of a given SM was calculated by dividing the averages of the LC50 or EC50 values obtained against each of the selected non-target nematodes by the LC50 or the EC50 values observed for each of the targeted PPN tested.
# [2] = tested on: Meloidogyne incognita J2 juveniles; test: microbe, parasite or virus in culture; conditions: Meloidogyne incognita, 24 h
# From the text: (§1) Only soil inhabiting (free-living or infective) stages of target and non-target nematode species were considered in the present study. All nematode cultures (except T. semipenetrans) were maintained in the Stock laboratory (University of Arizona). M. incognita was reared in planta using susceptible tomato plants (cv. Roma VF; seedlings with five or six true leaves; courtesy of Dr. J. Brown, University of Arizona). Eggs of M. incognita were extracted from infected tomato plant roots, and J2 were collected after hatching, following the procedures of Atamian et al. ([50]). T. semipenetrans was isolated from infested lemon orchards at the Yuma Agricultural Center, University of Arizona (Yuma, AZ, USA). Eggs of T. semipenetrans were extracted from infected lemon tree roots using the procedures of El-Borai et al. ([51]), and J2 were collected using the same procedure as that described for M. incognita.
# (§2) Twelve-well tissue culture plates were used as the experimental arena. For each of the tested nematode species, an inoculum of 100 nematodes, suspended in 20 μL distilled water, was added to each well. […] For PPA (Enamine) and indole (Alfa Aesar), 13 incremental concentrations were tested ranging from 10 to 400 μg/mL in 1 mL of distilled water (DMSO ≤ 1%; vol/vol). […] Distilled water with 1% DMSO was used as the negative control. To measure the combined nematicidal effects of the three SMs, equal concentrations of two or three SMs were mixed in 1:1 or 1:1:1 mixture. For example, a 20 μg/mL solution of a two-SM mixture contained 20 μg from metabolite A and 20 μg metabolite B, dissolved in 1 mL distilled water. Individual or combined SMs from 10 μg/mL to 200 μg/mL (in 20 μg/ml increments) were prepared in distilled water (DMSO ≤ 1%; vol/vol) and used for the bioassays.
# (§3) The well plates were covered with their lids and incubated at 25°C in the dark. For the targeted nematode species, nematicidal activity was recorded at 24 h, 48 h, and 72 h after initial exposure to the individual SMs. For the non-target species, data were only recorded at 24 h after initial exposure to the individual SMs. For SM mixtures, mortality was recorded 24 h after initial exposure of the targeted nematode species. Nematodes were probed with a needle to assess if they were alive, dead, or paralyzed. […] Those nematodes that resumed activity upon probing were considered to suffer from temporary paralysis (impaired motility). Paralyzed nematodes were rinsed at least three times in distilled water and held for an additional 24 h to check for their recovery from temporarily paralysis. […] Experiments were repeated at least three times per treatment for each concentration tested.
# (§4) For the toxicity data visualization, the relationship between percent mortality or temporary paralysis and metabolite concentration were described by a sigmoidal curve, which was fitted by the logistical function using the statistical software package SigmaPlot for Windows, version 14.0 (Systat Software Inc.). […] Concentration-response data of single metabolites or SM mixtures were pooled for each concentration and subjected to probit regression analysis using the Polo Plus program (LeOra Software). The LC or EC values, along with the corresponding 95% confidence intervals, were estimated for each single SM or SM mixture at each exposure time, depending on the experimental setting.
# [3] = tested on: Tylenchulus semipenetrans J2 juveniles; test: microbe, parasite or virus in culture; conditions: Tylenchulus semipenetrans, 24 h
# From the text: as §1, §2, §3, §4
compound,measurement,setting,value
"c1ccc2[nH]ccc2c1 [Indole, indole]","Selectivity index (EC50), bacteria-feeding nematodes alone",[1]; 24 h EC50,2–3
same,"Selectivity index (EC50), entomopathogenic nematodes alone",[1]; 24 h EC50,7-11
same,"Selectivity index (EC50), selected non-target nematode species","[1]; 24 h EC50, all non-target species",5–8
same,LC50,[2],307 µg/mL
same,LC50,[3],388 µg/mL

# Reference: paper PMC8826726, “Selective Toxicity of Secondary Metabolites from the Entomopathogenic Bacterium Photorhabdus luminescens sonorensis against Selected Plant Parasitic Nematodes of the Tylenchina Suborder” (Microbiology Spectrum, 2022)
